Assay results from US7893299B2, “Interleukin-1 and tumor necrosis factor-αmodulators; syntheses of such modulators and methods of using such modulators” (Nereus Pharmaceuticals, Inc., priority 2005, dated 2011).
Read-outs that look alike come from different tables or passages of the source.

Assays:
RPMI 8226 cells = test: cell growth inhibition, RPMI 8226, Resazurin, 1% FBS; type: cell-based, Human; settings: 48 hr of drug exposure
Procedure: (§1) Human prostate adenocarcinoma (PC-3; CRL-1435), multiple myeloma (RPMI 8226; CCL-155) and embryonic kidney (HEK-293; CRL-1573) cells were all purchased from ATCC and maintained in appropriate culture media. The cells were cultured in an incubator at 37° C. in 5% CO2 and 95% humidified air.
(§2) For cell growth inhibition assays, PC-3 and HEK-293 cells were seeded at 5×10^3 and 1.5×10^3 cells/well respectively in 90 μl media containing 1% (v/v) FBS into 96 well (Corning; 3904) black-walled, clear-bottom tissue culture plates and the plates were incubated overnight to allow cells to establish and enter log phase growth. RPMI 8226 cells were seeded at 2×10^4 cells/well respectively in 90 μl media containing 1% (v/v) FBS into 96 well plates on the day of the assay. 4 mg/ml stock solutions of the compounds were prepared in 100% DMSO and stored at −20° C. The compounds were serially diluted and added in triplicate to the test wells. LT-1-85 was tested at concentrations ranging from 27 μM to 8.6 nM. Concentrations ranging from 30 μM to 9.7 nM were tested for CC-3-13P. Formula (IIB-A1) was tested at concentrations ranging from 26 μM to 8.4 nM. The plates were returned to the incubator for 48 hours. The final concentration of DMSO was 0.25% in all samples.
(§3) Following 48 hours of drug exposure, 10 μl of 0.2 mg/ml Resazurin in Mg2+, Ca2+ free phosphate buffered saline was added to each well and the plates were returned to the incubator for 3-6 hours. Since living cells metabolize Resazurin, the fluorescence of the reduction product of Resazurin was measured using a Fusion microplate fluorometer (Packard Bioscience) with λex=535 nm and λem=590 nm filters. Resazurin dye in medium without cells was used to determine the background, which was subtracted from the data for all experimental wells. […] Where the maximum inhibition of cell growth was less than 50%, an EC50 value was not determined. The data in Table 25 summarize the growth inhibitory effects of LT-1-85, CC-3-13P and formula (IIB-A1) against HEK-293, PC-3 and RPMI 8226 cells. The EC50 values indicate that LT-1-85 and CC-3-13P are cytotoxic against HEK-293, PC-3 and RPMI 8226 cells. Formula (IIB-A1) is cytotoxic against RPMI 8226 cells.

[1] = system: TNF-α production in HPBMC; test: TNF-α levels in LPS-stimulated Human Peripheral Blood Mononuclear cells (ELISA); type: cell-based; settings: 5 hr drug exposure, read-out: EC50 Inhibition of TNF-α production
Procedure: (§4) Eighty μl of 3.1×10^5/ml Human Peripheral Blood Mononuclear cells (HPBMC) were seeded in Costar 3904 96-well plate in LGM-3 medium and cultured for 12 hr at 37° C., 5% CO2 and 95% humidified air. 10 μl of 8-point half-log serial dilutions of LT-1-85, CC-3-19, CC-3-13P, formula (IIB-A1) and CC-3-22 prepared in LGM-3 medium was added to the cells and incubated for 1 hr. Subsequently, 10 μl of 500 ng/ml lipopolysaccharide (LPS) diluted in LGM-3 medium from 1 mg/ml stock solution was added to the cells and incubation proceeded for another 4 hr at 37° C., 5% CO2 and 95% humidified air. SB203580, a known p38 MAP kinase inhibitor and DMSO were used as positive and negative controls, respectively. After 4 hr stimulation with LPS, the level of TNF-α from each sample was analyzed by using the human TNF-α cytoset ELISA kit. EC50 values (the drug concentration at which 50% of the maximal observed TNF-α production is inhibited) were determined using a standard sigmoidal dose response curve fitting algorithm (Prism 2.0, GraphPad Software Inc). A duplicate set of cell plates were assayed for cell viability using the Resazurin dye after the cells were incubated with test compounds for 24 hr. The fluorescence of the reduction product of Resazurin was measured using a Fusion microplate fluorometer (Packard Bioscience) with λex=535 nm and λem=590 nm filters. EC50 values (the drug concentration at which 50% of the maximal observed growth inhibition is established) were determined using a standard sigmoidal dose response curve fitting algorithm (Prism 2.0, GraphPad Software Inc).

HPBMC = HPBMC cell viability, Resazurin; type: cell-based, Human; settings: HPBMC, 24 hr drug exposure, read-out: EC50 Inhibition of cell growth
Procedure: as §4

PC-3 cells = test: cell growth inhibition, PC-3, Resazurin, 1% FBS; type: cell-based, Human; settings: 48 hr of drug exposure
Procedure: as §1, §2, §3

[2] = system: TNF-α production in THP-1 cells; test: LPS-induced TNF-α production in differentiated THP-1 cells (FLISA); type: cell-based; settings: Homo sapiens, read-out: Percent TNF-α Inhibition
Procedure: (§5) The ability to inhibit TNF-α production was analyzed in THP-1 cells, a human acute monocytic leukemia cell line that is widely used to assess monocyte functions. In order to induce maturation, THP-1 cells were plated at 1×10^6 cells/ml and pretreated with 5 nM PMA for two days. Differentiated THP-1 cells were pretreated with various concentrations of TTL3 or its analogs for 1 hour, followed by a 4 hour incubation with 1 μg of LPS (Sigma, St. Louse, Mo.). The p38 inhibitor (SB 203580; Sigma, St. Louis, Mo.) was used as a positive control. Supernatants were collected and stored at −80° C. until assayed for TNF-α activity. A resazurin assay was performed for each analog to evaluate the effects on cell metabolism and viability.
To detect the presence of human TNFα, fluorescent linked immunosorbent assay or FLISA was developed and optimized. 100 μl of beads (6 μm, Spherotech) coated with goat anti-mouse IgG (1 mg/ml, R and D Systems) were mixed with 4 μl of biotin-anti-hTNFα mouse IgG (0.1 mg/ml, R and D Systems) and 2 μl of FMAT Blue-streptavidin (0.1 mg/ml, Applied Biosystems). 50 μl of the mixtures was combined with 50 μl of the supernatant isolated from treated THP-1 cells and added to the black wall FLISA plates (Applied Biosystems) and incubated overnight. The plates were scanned at factory set PMT setting, and the values were plotted and analyzed by Applied Biosystems software.

THP-1 cells = test: resazurin viability assay in THP-1 cells; type: cell-based, human; settings: * mild, ** marked reduction in viability, in % (unit assumed)
Procedure: as §5
A preparation of the dye resazurin, commercially-available as alamarBlue™ (Biosource International Inc., 820 Flynn Road, Camarillo, Calif.), was used for the cytotoxicity assays described herein. The assays and experiments described herein were conducted in substantially the same manner as described in the scientific literature, for example, in Magnani, E. and Bettini, E., “Resazurin detection of energy metabolism changes in serum-starved PC12 cells and of neuroprotective agent effect,” Brain Res Protoc., 2000 July; 5(3):266-72 and in Nociari M. M., Shalev A., Benias P., and Russo C. J, “A novel one-step, highly sensitive fluorometric assay to evaluate cell-mediated cytotoxicity,” Immunol. Methods 213, 157-167 (1998), see also U.S. Pat. No. 5,501,959, entitled “Antibiotic and Cytotoxic Drug Susceptibility Assays using Resazurin and Poising Agents,” the entire specification of which is incorporated herein by reference.

PC3 (Prostate) = test: 48 hr cytotoxicity, PC-3; type: cell-based, human; settings: Homo sapiens, 48 h
Procedure: (§6) B16-F10 (ATCC; CRL-6475), DU 145 (ATCC; HTB-81), HEK293 (ATCC; CRL-1573), HT-29 (ATCC; HTB-38), LoVo (ATCC; CCL-229), MDA-MB-231 (ATCC; HTB-26), MIA PaCa-2 (ATCC; CRL-1420), NCI-H292 (ATCC; CRL-1848), OVCAR-3 (ATCC, HTB-161), PANC-1 (ATCC; CRL-1469), PC-3 (ATCC; CRL-1435), RPMI 8226 (ATCC; CCL-155) and U266 (ATCC; TIB-196) are maintained in appropriate culture media. The cells are cultured in an incubator at 37° C. in 5% CO2 and 95% humidified air.
(§7) For cell growth inhibition assays, B16-F10, DU 145, HEK293, HT-29, LoVo, MDA-MB-231, MIA PaCa-2, NCI-H292, OVCAR-3, PANC-1, PC-3, RPMI 8226 and U266 cells are seeded at 1.25×10^3, 5×10^3, 1.5×10^4, 5×10^3, 5×10^3, 1×10^4, 2×10^3, 4×10^3, 1×10^4, 7.5×10^3, 5×10^3, 2×10^4, 2.5×10^4 cells/well respectively in 90 μl complete media into Corning 3904 black-walled, clear-bottom tissue culture plates. 20 mM stock solutions of compounds of Formula II, IIA, and IIB are prepared in 100% DMSO, aliquoted and stored at −80° C. Compounds of Formula II, IIA, and IIB are serially diluted and added in triplicate to the test wells resulting in final concentrations ranging from of 20 μM to 0.2 pM. […]
(§8) Following 48 hours of drug exposure, 10 μl of 0.2 mg/ml resazurin (obtained from Sigma-Aldrich Chemical Co.) in Mg^2+, Ca^2+ free phosphate buffered saline is added to each well and the plates are returned to the incubator for 3-6 hours. Since living cells metabolize Resazurin, the fluorescence of the reduction product of Resazurin is measured using a Fusion microplate fluorometer (Packard Bioscience) with λex=535 nm and λem=590 nm filters. […]
(§9) The cytotoxicity assays were performed by seeding individual cell lines at appropriate density in the 96 well flat-bottomed plates and allowed to attach for 24 hours at 37° C., 5% CO2 and 95% humidified air (RPMI 8226 and U266 cells were plated in 96 well plates on the day of compound addition). […] Cell viability was assessed 48 hours later by measuring the fluorescence of the reduction product of Resazurin by a Fusion microplate fluorometer (PerkinElmer) with λex=535 nm and λem=590 nm filters. […]

RPMI 8226 (MM) = test: 48 hr cytotoxicity, RPMI 8226; type: cell-based, human; settings: Homo sapiens, RPMI-8226, 48 h
Procedure: (§10) Human colon adenocarcinoma HT-29 (ATCC# HTB-38), prostate adenocarcinoma PC-3 (ATCC# CRL-1435), breast adenocarcinoma MDA-MB231 (ATCC# HTB-26), Multiple Myeloma RPMI 8226 (ATCC# CCL-155) and U266 (ATCC # TIB-196) cell lines and human normal fibroblast CCD-27sk (ATCC# CRL-1475) were all purchased from ATCC (Manassas, Va.). The cells were maintained in their respective ATCC recommended culture media at 37° C., 5% CO2 and 95% humidified air.
(§11) The cytotoxicity assays were performed by seeding individual cell lines at appropriate density in the 96 well flat-bottomed plates and allowed to attach for 24 hours at 37° C., 5% CO2 and 95% humidified air (RPMI 8226 and U266 cells were plated in 96 well plates on the day of compound addition). Serially diluted NPI-1387 was added in triplicate to cells at concentrations ranging from 160 nM to 20 μM. Final concentration of 0.25% (v/v) DMSO was used as the vehicle control. Cell viability was assessed 48 hours later by measuring the fluorescence of the reduction product of Resazurin by a Fusion microplate fluorometer (PerkinElmer) with λex=535 nm and λem=590 nm filters. The IC50 values (the drug concentration at which 50% of the maximal observed cytotoxicity is established) were calculated in XLFit 3.0 or XLFit 4.0 (ID Business Solutions Ltd) using a sigmoidal dose response model.

MDA-MB-231 (Breast) = test: 48 hr cytotoxicity, MDA-MB-231; type: cell-based, human; settings: Homo sapiens, MDA-MB-231, 48 h
Procedure: as §6, §7, §8, §9

HT-29 (Colon) = test: 48 hr cytotoxicity, HT-29; type: cell-based, human; settings: Homo sapiens, HT-29, 48 h
Procedure: as §10, §11

U266 (MM) = test: 48 hr cytotoxicity, U266; type: cell-based, human; settings: Homo sapiens, U-266, 48 h
Procedure: as §6, §7, §8, §9

C=C[C@@]1(C)CCC=C2[C@H]1CC[C@@H]1[C@](C)(CNCCN)CCC[C@@]21C [CC-3-13P]
EC50 (RPMI 8226 cells): 2.7 µM | EC50 (RPMI 8226 cells; Homo sapiens, RPMI-8226, 48 h): 2.3 µM | EC50 [1]: 0.4 µM | EC50 ([1]; Homo sapiens, PBMC, 5 h): 0.5 µM | EC50 (HPBMC): 0.7 µM | EC50 (HPBMC; Homo sapiens, 24 h): 0.9 µM | EC50 (PC-3 cells): 4 µM | EC50 (PC-3 cells; Homo sapiens, PC-3, 48 h): 3.7 µM

C=C[C@@]1(C)CCC=C2[C@H]1CC[C@@H]1[C@](C)(CC(=O)CN3CCNCC3)CCC[C@@]21C [CC-3-19]
EC50 ([1]; Homo sapiens, PBMC, 5 h): 3.3 µM | EC50 (HPBMC; Homo sapiens, 24 h): 3 µM

C=C[C@@]1(C)CCC=C2[C@H]1CC[C@@H]1[C@](C)(COC(=O)CN3CCOCC3)CCC[C@@]21C [CC-3-22]
inhibition at 0.1 µg/mL ([2]; 100 ng/ml): 0% | inhibition at 1 µg/mL ([2]; 1 ug/ml): 0% | inhibition at 10 µg/mL ([2]; 10 ug/ml): 20% | EC50 ([1]; Homo sapiens, PBMC, 5 h): 7.4 µM | EC50 (HPBMC; Homo sapiens, 24 h): 24 µM | Effect on Cell Viability (THP-1 cells; 100 ng/ml): 100 | Effect on Cell Viability (THP-1 cells; 1 ug/ml): 100 | Effect on Cell Viability (THP-1 cells; 10 ug/ml): 100

C=CC(=O)[C@]1(C)CCC[C@@]2(C)C3CCC4C[C@@]3(CCC21)CC4=C (stereo partly shown) [NPI-1388]
IC50 (PC3 (Prostate)): 10 ± 3 µM | IC50 (RPMI 8226 (MM)): 4.1 ± 1.1 µM | IC50 (MDA-MB-231 (Breast)): 14 ± 5 µM | IC50 (HT-29 (Colon)): 17 ± 4 µM | IC50 (U266 (MM)): 8.6 ± 6.4 µM

C=C[C@@]1(C)CCC=C2[C@H]1CC[C@@H]1[C@](C)(C(=O)O)CCC[C@@]21C [TTL1]
Effect on Cell Viability (THP-1 cells; 100 ng/ml): 100 | Effect on Cell Viability (THP-1 cells; 1 ug/ml): 100
